{
  "source": "patent US12036237B2",
  "about": "“Bromide source for use in treating autism spectral disorder” (INSERM (INSTITUT NATIONAL DE LA SANTE ET DE LA RECHERCHE …, priority 2016, dated 2024)",
  "key": {"Fmr1−/− mice [1]": {"test_system": "Fmr1−/− mice", "test": "Motor stereotypies scoring", "assay_type": "in vivo", "conditions": "bromide 250 mg/kg i.p. daily", "experimental": "(§1) Sodium bromide (anhydrous, Sigma-Aldrich, Saint-Quentin, France) dissolved in saline solution (NaCl, 0.9%) at the dose of 250 or 500 mg/kg, or vehicle (NaCl, 0.9%), was administered intraperitoneally once a day for 19 days in a volume of 20 ml/kg. On testing days, bromide was administered 30 min before behavioural assays. Bumetanide (Tocris, provided by Bio-Techne, Lille, France) dissolved in NaCl 0.9% at the dose of 0.5 mg/kg (Deidda et al, 2015) or vehicle was administered intraperitoneally once a day for 19 days in a volume of 20 ml/kg.\n(§2) Behavioural assays started after a week of daily bromide (or bumetanide) treatment."}, "Shank3B−/− mice [2]": {"test_system": "Shank3B−/− mice", "test": "Motor stereotypies scoring", "assay_type": "in vivo", "conditions": "bromide 250 mg/kg i.p. daily", "experimental": "as §1, §2"}, "Oprm1−/− mice [3]": {"test_system": "Oprm1−/− mice", "test": "Direct social interaction test"}, "[4]": {"conditions": "literature statement (Romermann et al, 2017); cited from earlier work"}, "Fmr1−/− mice [5]": {"test_system": "Fmr1−/− mice", "test": "Y-maze exploration", "assay_type": "in vivo", "conditions": "bromide 250 mg/kg i.p. daily", "experimental": "as §1, §2"}, "Shank3B−/− mice [6]": {"test_system": "Shank3B−/− mice", "test": "Y-maze exploration", "assay_type": "in vivo", "conditions": "bromide 250 mg/kg i.p. daily", "experimental": "as §1, §2"}, "Oprm1−/− mice [7]": {"test_system": "Oprm1−/− mice", "test": "Novelty-suppressed feeding test", "conditions": "for latency to feed: Oprm1 wild-type and null mice, bromide 250, 500 mg/kg"}, "[8]": {"conditions": "Example 2, Oprm1−/− mice, bromide 250, 500 mg/kg i.p. daily"}, "[9]": {"conditions": "Example 2, male and female Oprm1−/− mice, bromide 250, 500 mg/kg"}, "[10]": {"conditions": "Oprm1−/− mice, bromide 125, 250, 500 mg/kg i.p. daily vs saline"}, "[11]": {"conditions": "Oprm1−/− mice, bumetanide 0.5 mg/kg"}},
  "note": "“Also recorded” adds a separate entry of the source.",
  "data": [
    {"smiles": "[Br-].[Na+]", "note": "[bromide, Sodium bromide]", "values": [
      {"measurement": "motor stereotypies (overall)", "setting": "Fmr1−/− mice [1]; Fmr1−/− mice", "result": "efficiently reduced; also recorded: relieves"},
      {"measurement": "number of circling episodes", "setting": "Fmr1−/− mice [1]; Fmr1−/− mice", "result": "normalized; also recorded: reduced"},
      {"measurement": "number of shakes", "setting": "Fmr1−/− mice [1]; Fmr1−/− mice", "result": "normalized; also recorded: reduced"},
      {"measurement": "duration of burying events", "setting": "Fmr1−/− mice [1]; all animals (Fmr1 line)", "result": "reduced"},
      {"measurement": "time spent burying", "setting": "Fmr1−/− mice [1]; all animals (Fmr1 line)", "result": "reduced"},
      {"measurement": "number of rearing episodes", "setting": "Shank3B−/− mice [2]; Shank3B−/− and wild-type", "result": "no effect"},
      {"measurement": "motor stereotypies (overall)", "setting": "Shank3B−/− mice [2]; Shank3B−/− mice", "result": "efficiently reduced; also recorded: relieves"},
      {"measurement": "number of circling episodes", "setting": "Shank3B−/− mice [2]; Shank3B−/− mice", "result": "normalized; also recorded: reduced"},
      {"measurement": "number of grooming episodes", "setting": "Shank3B−/− mice [2]; Shank3B−/− mice", "result": "normalized"},
      {"measurement": "number of shakes", "setting": "Shank3B−/− mice [2]; Shank3B−/− mice", "result": "normalized; also recorded: reduced"},
      {"measurement": "number of nose contacts and following episodes", "setting": "Oprm1−/− mice [3]; Example 2, FIG. 13A, male mutants, both doses", "result": "increased"},
      {"measurement": "total amount of time spent in social contact", "setting": "Oprm1−/− mice [3]; Example 2, FIG. 13A, male wild-type and knockout mice", "result": "increased"},
      {"measurement": "total time in social contact, number of nose contacts and following episodes", "setting": "Oprm1−/− mice [3]; Example 2, FIG. 13B, female mutant mice only, dose dependent", "result": "increased"},
      {"measurement": "number of rearing episodes (activity)", "setting": "Oprm1−/− mice [3]; Example 2, Oprm1 null mice, bromide 250 mg/kg, more in males than females", "result": "increased"},
      {"measurement": "social interaction (overall)", "setting": "Oprm1−/− mice [3]; Example 2, Oprm1−/− mice, bromide 250, 500 mg/kg", "result": "able to restore social interaction"},
      {"measurement": "number of following episodes", "setting": "Oprm1−/− mice [3]; [8]", "result": "increasing"},
      {"measurement": "number, time spent in and duration of nose and paw contacts", "setting": "Oprm1−/− mice [3]; [8]", "result": "increasing"},
      {"measurement": "time spent in close contact", "setting": "Oprm1−/− mice [3]; [8]", "result": "increasing"},
      {"measurement": "gender influence on the increase of social interaction parameters", "setting": "Oprm1−/− mice [3]; Example 2, Oprm1−/− mice, effects since 250 mg/kg in males, only at the highest dose in females", "result": "more significantly in males than in females"},
      {"measurement": "duration of grooming episodes", "setting": "Oprm1−/− mice [3]; [9]", "result": "reduced"},
      {"measurement": "number of grooming episodes", "setting": "Oprm1−/− mice [3]; [9]", "result": "reduced"},
      {"measurement": "number of grooming episodes occurring immediately after a close contact", "setting": "Oprm1−/− mice [3]; [9]", "result": "reduced"},
      {"measurement": "time spent grooming", "setting": "Oprm1−/− mice [3]; [9]", "result": "reduced"},
      {"measurement": "direct social interaction (overall)", "setting": "Oprm1−/− mice [3]; [10]", "result": "can restore direct social interaction; also recorded: significantly improved social interaction; also recorded: increased direct social interaction"},
      {"measurement": "number of following episodes", "setting": "Oprm1−/− mice [3]; [10]", "result": "dose-dependently increasing; also recorded: increased"},
      {"measurement": "number of grooming episodes", "setting": "Oprm1−/− mice [3]; [10]", "result": "reduced"},
      {"measurement": "number of grooming episodes occurring immediately after a social contact", "setting": "Oprm1−/− mice [3]; [10]", "result": "reduced"},
      {"measurement": "number, time spent in and duration of nose and paw contacts", "setting": "Oprm1−/− mice [3]; [10]", "result": "dose-dependently increasing; also recorded: increased"},
      {"measurement": "total time spent in social contact", "setting": "Oprm1−/− mice [3]; [10]", "result": "dose-dependently increasing; also recorded: increased"},
      {"measurement": "efficiency on social interaction parameters in male compared with female mice", "setting": "Oprm1−/− mice [3]; Oprm1−/− mice, bromide 250 and 500 mg/kg i.p. daily", "result": "more efficient in increasing social interaction parameters"},
      {"measurement": "increases in social contact time, nose contacts, following episodes and paw contacts, bromide compared with bumetanide", "setting": "Oprm1−/− mice [3]; [11]", "result": "bigger increases"},
      {"measurement": "suppressive effects on grooming episodes incl. those after a social contact, bromide compared with bumetanide", "setting": "Oprm1−/− mice [3]; [11]", "result": "comparable"},
      {"measurement": "beneficial effects on sociability, bromide compared with bumetanide", "setting": "Oprm1−/− mice [3]; Oprm1−/− mice, social interaction and three-chamber tests, bumetanide at 0.5 mg/kg, 0.5 mg/kg", "result": "more significant; also recorded: superior efficacy"},
      {"measurement": "ability to cross the blood brain barrier", "setting": "[4]", "result": "easily cross this barrier"},
      {"measurement": "perseverative same arm returns (cognitive stereotypies)", "setting": "Fmr1−/− mice [5]", "result": "efficiently reduced; also recorded: relieves; also recorded: suppressed"},
      {"measurement": "rate of alternate arm returns", "setting": "Shank3B−/− mice [6]; Shank3B line", "result": "not modified"},
      {"measurement": "perseverative same arm returns (cognitive stereotypies)", "setting": "Shank3B−/− mice [6]; Shank3B−/− mice", "result": "normalized; also recorded: relieves; also recorded: suppressed"},
      {"measurement": "rate of spontaneous alternation", "setting": "Shank3B−/− mice [6]; Shank3B−/− mice", "result": "rescued"},
      {"measurement": "food intake in home cage", "setting": "Oprm1−/− mice [7]; Example 2, Oprm1 mutants", "result": "increased food intake in mutants"},
      {"measurement": "latency to feed", "setting": "Oprm1−/− mice [7]; Example 2", "result": "drastically reduced"},
      {"measurement": "latency to feed", "setting": "Oprm1−/− mice [7]; Example 2, listed as Bromide", "result": "decreased in wild-type, and normalized in mu opioid receptor null mice"},
      {"measurement": "gender influence on latency to feed", "setting": "Oprm1−/− mice [7]; Example 2, bromide 250 mg/kg", "result": "more effective in males than in females"},
      {"measurement": "dose at which the maximal effect on latency to feed was reached", "setting": "Oprm1−/− mice [7]; Example 2, female Oprm1 null mice", "result": 500, "unit": "mg/kg"},
      {"measurement": "food intake in home cage", "setting": "Oprm1−/− mice [7]; Example 2, female wild-type animals, bromide 250 mg", "result": "ate more than saline-treated animals"},
      {"measurement": "dose at which the maximal effect on latency to feed was reached", "setting": "Oprm1−/− mice [7]; Example 2, male Oprm1 null mice", "result": 250, "unit": "mg/kg"},
      {"measurement": "feeding latency", "setting": "Oprm1−/− mice [7]; Oprm1−/− mice, bromide, all three doses (125, 250, 500 mg/kg)", "result": "efficiently reduced the feeding latency to wild-type level; also recorded: normalized"},
      {"measurement": "behavioural signs of anxiety (overall)", "setting": "Oprm1−/− mice [7]; Oprm1−/− mice, marble burying and novelty-suppressed feeding, bromide 125, 250, 500 mg/kg", "result": "efficiently reduced; also recorded: relieved"},
      {"measurement": "food intake back in the home cage", "setting": "Oprm1−/− mice [7]; wild-type and mutant mice, bromide 125, 250, 500 mg/kg i.p. daily", "result": "increased"}
    ]}
  ]
}
